Reference: the NIST ThermoML archive (doi:10.1021/acs.jced.6b00327)

Test: xn = mol fraction of the nth substance listed
Conditions: Liquid, Buoyancy - hydrostatic balance with magnetic suspension - one sinker

F/C=C/C(F)(F)F [trans-1,3,3,3-tetrafluoropropene] + CCC
Conditions	mass density [kg/m3]
253.14 K, x1 = 0.4965	913.53
253.3 K, x1 = 0.1746	680.21
253.44 K, x1 = 0.8803	1197.23
253.45 K, x1 = 0.7006	1067.62
256.11 K, x1 = 0.1746	676.35
258.14 K, x1 = 0.7006	1056.03
258.17 K, x1 = 0.4965	903.57
258.2 K, x1 = 0.8803	1186.23
261.14 K, x1 = 0.1746	670.01
263.15 K, x1 = 0.7006	1043.42
263.16 K, x1 = 0.4965	892.67
263.17 K, x1 = 0.8803	1175.37
265.18 K, x1 = 0.1746	662.22
268.17 K, x1 = 0.7006	1030.6
268.19 K, x1 = 0.4965	884.02
268.2 K, x1 = 0.8803	1162.41
269.18 K, x1 = 0.1746	655.74
273.18 K, x1 = 0.7006	1017.6
273.18 K, x1 = 0.8803	1149.12
273.2 K, x1 = 0.1746	648.23
273.2 K, x1 = 0.4965	873.27
278.19 K, x1 = 0.8803	1135.29
278.2 K, x1 = 0.1746	640.01
278.2 K, x1 = 0.7006	1004.24
278.24 K, x1 = 0.4965	862
283.18 K, x1 = 0.1746	630.77
283.19 K, x1 = 0.4965	851.76
283.19 K, x1 = 0.8803	1121.17
283.2 K, x1 = 0.7006	991.21
288.21 K, x1 = 0.8803	1106.57
288.22 K, x1 = 0.7006	977.85
288.25 K, x1 = 0.4965	842.07
293.28 K, x1 = 0.4965	831.58
293.28 K, x1 = 0.7006	963.78
293.28 K, x1 = 0.8803	1091.31
